20 substances from the OligoGym collection can be followed below.

Oligonucleotides are given in HELM: sugar(base)linkage, 5' to 3'; d 2'-deoxyribose, r ribose, m 2'-O-methylribose, p phosphate. ss, as = sense and antisense strand
Note: test concentration or dose not given here.

The data set has as its target UBE2K. Kind of data set: reporter assay of Huesken 2005. The conditions noted are these: siRNA. On the technique in general: Reporter assays use an easily measured gene product as a stand-in for the process of interest.
As for “RNA1{r(U)p.r(A)p.r(U)p.r(U)p.r(G)p.r(U)p.r(C)p.r(A)p.r(U)p.r(U)p.r(G)p.r(C)p.r(A)p.r(A)p.r(G)p.r(C)p.r(A)p.r(C)p.r(U)p.d(T)p.d(T)}|RNA2{r(A)p.r(G)p.r(U)p.r(G)p.r(C)p.r(U)p.r(U)p.r(G)p.r(C)p.r(A)p.r(A)p.r(U)p.r(G)p.r(A)p.r(C)p.r(A)p.r(A)p.r(U)p.r(A)p.d(A)p.d(T)}$$$RNA1{StrandType:ss}|RNA2{StrandType:as}$”, the normalised inhibition (eCFP-eYFP dual reporter) stood at 89.2%.
Consider “RNA1{r(C)p.r(C)p.r(U)p.r(C)p.r(C)p.r(A)p.r(G)p.r(A)p.r(C)p.r(A)p.r(C)p.r(A)p.r(C)p.r(C)p.r(A)p.r(U)p.r(A)p.r(U)p.r(G)p.d(T)p.d(T)}|RNA2{r(C)p.r(A)p.r(U)p.r(A)p.r(U)p.r(G)p.r(G)p.r(U)p.r(G)p.r(U)p.r(G)p.r(U)p.r(C)p.r(U)p.r(G)p.r(G)p.r(A)p.r(G)p.r(G)p.d(T)p.d(C)}$$$RNA1{StrandType:ss}|RNA2{StrandType:as}$”, for which the normalised inhibition (eCFP-eYFP dual reporter) was determined as 66.9%.
In the case of “RNA1{r(U)p.r(U)p.r(G)p.r(U)p.r(A)p.r(G)p.r(A)p.r(U)p.r(G)p.r(A)p.r(G)p.r(A)p.r(A)p.r(U)p.r(U)p.r(U)p.r(U)p.r(A)p.r(C)p.d(T)p.d(T)}|RNA2{r(G)p.r(U)p.r(A)p.r(A)p.r(A)p.r(A)p.r(U)p.r(U)p.r(C)p.r(U)p.r(C)p.r(A)p.r(U)p.r(C)p.r(U)p.r(A)p.r(C)p.r(A)p.r(A)p.d(G)p.d(A)}$$$RNA1{StrandType:ss}|RNA2{StrandType:as}$” it was 55.1%.
The value for “RNA1{r(C)p.r(U)p.r(U)p.r(G)p.r(U)p.r(A)p.r(G)p.r(A)p.r(U)p.r(G)p.r(A)p.r(G)p.r(A)p.r(A)p.r(U)p.r(U)p.r(U)p.r(U)p.r(A)p.d(T)p.d(T)}|RNA2{r(U)p.r(A)p.r(A)p.r(A)p.r(A)p.r(U)p.r(U)p.r(C)p.r(U)p.r(C)p.r(A)p.r(U)p.r(C)p.r(U)p.r(A)p.r(C)p.r(A)p.r(A)p.r(G)p.d(A)p.d(T)}$$$RNA1{StrandType:ss}|RNA2{StrandType:as}$” was 91.3%; that for “RNA1{r(G)p.r(A)p.r(C)p.r(A)p.r(C)p.r(A)p.r(C)p.r(C)p.r(A)p.r(U)p.r(A)p.r(U)p.r(G)p.r(A)p.r(A)p.r(G)p.r(G)p.r(A)p.r(G)p.d(T)p.d(T)}|RNA2{r(C)p.r(U)p.r(C)p.r(C)p.r(U)p.r(U)p.r(C)p.r(A)p.r(U)p.r(A)p.r(U)p.r(G)p.r(G)p.r(U)p.r(G)p.r(U)p.r(G)p.r(U)p.r(C)p.d(T)p.d(G)}$$$RNA1{StrandType:ss}|RNA2{StrandType:as}$” was 64.2%; that for “RNA1{r(G)p.r(G)p.r(U)p.r(U)p.r(U)p.r(A)p.r(U)p.r(C)p.r(A)p.r(C)p.r(U)p.r(A)p.r(A)p.r(A)p.r(A)p.r(U)p.r(A)p.r(U)p.r(G)p.d(T)p.d(T)}|RNA2{r(C)p.r(A)p.r(U)p.r(A)p.r(U)p.r(U)p.r(U)p.r(U)p.r(A)p.r(G)p.r(U)p.r(G)p.r(A)p.r(U)p.r(A)p.r(A)p.r(A)p.r(C)p.r(C)p.d(G)p.d(G)}$$$RNA1{StrandType:ss}|RNA2{StrandType:as}$” was 81.2%.
The value for “RNA1{r(A)p.r(G)p.r(G)p.r(G)p.r(G)p.r(C)p.r(U)p.r(A)p.r(U)p.r(U)p.r(U)p.r(G)p.r(U)p.r(U)p.r(U)p.r(G)p.r(G)p.r(A)p.r(U)p.d(T)p.d(T)}|RNA2{r(A)p.r(U)p.r(C)p.r(C)p.r(A)p.r(A)p.r(A)p.r(C)p.r(A)p.r(A)p.r(A)p.r(U)p.r(A)p.r(G)p.r(C)p.r(C)p.r(C)p.r(C)p.r(U)p.d(G)p.d(T)}$$$RNA1{StrandType:ss}|RNA2{StrandType:as}$” was 71%; that for “RNA1{r(G)p.r(G)p.r(C)p.r(A)p.r(G)p.r(C)p.r(U)p.r(G)p.r(C)p.r(A)p.r(A)p.r(U)p.r(G)p.r(A)p.r(C)p.r(U)p.r(C)p.r(U)p.r(C)p.d(T)p.d(T)}|RNA2{r(G)p.r(A)p.r(G)p.r(A)p.r(G)p.r(U)p.r(C)p.r(A)p.r(U)p.r(U)p.r(G)p.r(C)p.r(A)p.r(G)p.r(C)p.r(U)p.r(G)p.r(C)p.r(C)p.d(C)p.d(A)}$$$RNA1{StrandType:ss}|RNA2{StrandType:as}$” was 57.6%.
“RNA1{r(U)p.r(A)p.r(G)p.r(A)p.r(U)p.r(C)p.r(U)p.r(U)p.r(G)p.r(U)p.r(A)p.r(G)p.r(A)p.r(U)p.r(G)p.r(A)p.r(G)p.r(A)p.r(A)p.d(T)p.d(T)}|RNA2{r(U)p.r(U)p.r(C)p.r(U)p.r(C)p.r(A)p.r(U)p.r(C)p.r(U)p.r(A)p.r(C)p.r(A)p.r(A)p.r(G)p.r(A)p.r(U)p.r(C)p.r(U)p.r(A)p.d(C)p.d(T)}$$$RNA1{StrandType:ss}|RNA2{StrandType:as}$”: the normalised inhibition (eCFP-eYFP dual reporter) stood at 85.7%.
In turn, “RNA1{r(U)p.r(U)p.r(U)p.r(G)p.r(U)p.r(U)p.r(U)p.r(G)p.r(G)p.r(A)p.r(U)p.r(A)p.r(U)p.r(C)p.r(C)p.r(U)p.r(G)p.r(A)p.r(A)p.d(T)p.d(T)}|RNA2{r(U)p.r(U)p.r(C)p.r(A)p.r(G)p.r(G)p.r(A)p.r(U)p.r(A)p.r(U)p.r(C)p.r(C)p.r(A)p.r(A)p.r(A)p.r(C)p.r(A)p.r(A)p.r(A)p.d(T)p.d(A)}$$$RNA1{StrandType:ss}|RNA2{StrandType:as}$” had a normalised inhibition (eCFP-eYFP dual reporter) of 78.9%.
In the case of “RNA1{r(A)p.r(G)p.r(G)p.r(A)p.r(G)p.r(G)p.r(A)p.r(A)p.r(G)p.r(A)p.r(U)p.r(A)p.r(C)p.r(C)p.r(A)p.r(A)p.r(C)p.r(U)p.r(A)p.d(T)p.d(T)}|RNA2{r(U)p.r(A)p.r(G)p.r(U)p.r(U)p.r(G)p.r(G)p.r(U)p.r(A)p.r(U)p.r(C)p.r(U)p.r(U)p.r(C)p.r(C)p.r(U)p.r(C)p.r(C)p.r(U)p.d(T)p.d(C)}$$$RNA1{StrandType:ss}|RNA2{StrandType:as}$” it was 75.4%.
The value for “RNA1{r(U)p.r(C)p.r(C)p.r(A)p.r(G)p.r(A)p.r(C)p.r(A)p.r(C)p.r(A)p.r(C)p.r(C)p.r(A)p.r(U)p.r(A)p.r(U)p.r(G)p.r(A)p.r(A)p.d(T)p.d(T)}|RNA2{r(U)p.r(U)p.r(C)p.r(A)p.r(U)p.r(A)p.r(U)p.r(G)p.r(G)p.r(U)p.r(G)p.r(U)p.r(G)p.r(U)p.r(C)p.r(U)p.r(G)p.r(G)p.r(A)p.d(G)p.d(G)}$$$RNA1{StrandType:ss}|RNA2{StrandType:as}$” was 73.9%.
In turn, “RNA1{r(C)p.r(C)p.r(A)p.r(G)p.r(A)p.r(U)p.r(G)p.r(A)p.r(U)p.r(C)p.r(C)p.r(A)p.r(C)p.r(A)p.r(G)p.r(G)p.r(A)p.r(U)p.r(G)p.d(T)p.d(T)}|RNA2{r(C)p.r(A)p.r(U)p.r(C)p.r(C)p.r(U)p.r(G)p.r(U)p.r(G)p.r(G)p.r(A)p.r(U)p.r(C)p.r(A)p.r(U)p.r(C)p.r(U)p.r(G)p.r(G)p.d(C)p.d(T)}$$$RNA1{StrandType:ss}|RNA2{StrandType:as}$” gave a normalised inhibition (eCFP-eYFP dual reporter) of 66.7%.
The value for “RNA1{r(G)p.r(A)p.r(G)p.r(G)p.r(A)p.r(G)p.r(A)p.r(A)p.r(A)p.r(U)p.r(A)p.r(G)p.r(C)p.r(A)p.r(G)p.r(G)p.r(A)p.r(C)p.r(C)p.d(T)p.d(T)}|RNA2{r(G)p.r(G)p.r(U)p.r(C)p.r(C)p.r(U)p.r(G)p.r(C)p.r(U)p.r(A)p.r(U)p.r(U)p.r(U)p.r(C)p.r(U)p.r(C)p.r(C)p.r(U)p.r(C)p.d(T)p.d(T)}$$$RNA1{StrandType:ss}|RNA2{StrandType:as}$” was 54.8%; that for “RNA1{r(G)p.r(C)p.r(C)p.r(A)p.r(G)p.r(A)p.r(U)p.r(G)p.r(A)p.r(U)p.r(C)p.r(C)p.r(A)p.r(C)p.r(A)p.r(G)p.r(G)p.r(A)p.r(U)p.d(T)p.d(T)}|RNA2{r(A)p.r(U)p.r(C)p.r(C)p.r(U)p.r(G)p.r(U)p.r(G)p.r(G)p.r(A)p.r(U)p.r(C)p.r(A)p.r(U)p.r(C)p.r(U)p.r(G)p.r(G)p.r(C)p.d(T)p.d(C)}$$$RNA1{StrandType:ss}|RNA2{StrandType:as}$” was 74.9%.
In the case of “RNA1{r(A)p.r(A)p.r(A)p.r(A)p.r(U)p.r(A)p.r(U)p.r(G)p.r(G)p.r(C)p.r(A)p.r(U)p.r(C)p.r(C)p.r(U)p.r(A)p.r(A)p.r(U)p.r(A)p.d(T)p.d(T)}|RNA2{r(U)p.r(A)p.r(U)p.r(U)p.r(A)p.r(G)p.r(G)p.r(A)p.r(U)p.r(G)p.r(C)p.r(C)p.r(A)p.r(U)p.r(A)p.r(U)p.r(U)p.r(U)p.r(U)p.d(A)p.d(G)}$$$RNA1{StrandType:ss}|RNA2{StrandType:as}$” it was 67.3%; in that of “RNA1{r(G)p.r(G)p.r(G)p.r(G)p.r(C)p.r(U)p.r(A)p.r(U)p.r(U)p.r(U)p.r(G)p.r(U)p.r(U)p.r(U)p.r(G)p.r(G)p.r(A)p.r(U)p.r(A)p.d(T)p.d(T)}|RNA2{r(U)p.r(A)p.r(U)p.r(C)p.r(C)p.r(A)p.r(A)p.r(A)p.r(C)p.r(A)p.r(A)p.r(A)p.r(U)p.r(A)p.r(G)p.r(C)p.r(C)p.r(C)p.r(C)p.d(T)p.d(G)}$$$RNA1{StrandType:ss}|RNA2{StrandType:as}$”, 81.2%; in that of “RNA1{r(A)p.r(G)p.r(A)p.r(A)p.r(A)p.r(C)p.r(A)p.r(U)p.r(A)p.r(C)p.r(C)p.r(C)p.r(A)p.r(U)p.r(U)p.r(U)p.r(A)p.r(A)p.r(U)p.d(T)p.d(T)}|RNA2{r(A)p.r(U)p.r(U)p.r(A)p.r(A)p.r(A)p.r(U)p.r(G)p.r(G)p.r(G)p.r(U)p.r(A)p.r(U)p.r(G)p.r(U)p.r(U)p.r(U)p.r(C)p.r(U)p.d(G)p.d(G)}$$$RNA1{StrandType:ss}|RNA2{StrandType:as}$”, 72.3%.
The value for “RNA1{r(A)p.r(U)p.r(C)p.r(U)p.r(U)p.r(G)p.r(U)p.r(A)p.r(G)p.r(A)p.r(U)p.r(G)p.r(A)p.r(G)p.r(A)p.r(A)p.r(U)p.r(U)p.r(U)p.d(T)p.d(T)}|RNA2{r(A)p.r(A)p.r(A)p.r(U)p.r(U)p.r(C)p.r(U)p.r(C)p.r(A)p.r(U)p.r(C)p.r(U)p.r(A)p.r(C)p.r(A)p.r(A)p.r(G)p.r(A)p.r(U)p.d(C)p.d(T)}$$$RNA1{StrandType:ss}|RNA2{StrandType:as}$” was 81.3%; that for “RNA1{r(A)p.r(G)p.r(C)p.r(A)p.r(A)p.r(A)p.r(U)p.r(C)p.r(A)p.r(G)p.r(U)p.r(A)p.r(C)p.r(A)p.r(A)p.r(A)p.r(C)p.r(A)p.r(A)p.d(T)p.d(T)}|RNA2{r(U)p.r(U)p.r(G)p.r(U)p.r(U)p.r(U)p.r(G)p.r(U)p.r(A)p.r(C)p.r(U)p.r(G)p.r(A)p.r(U)p.r(U)p.r(U)p.r(G)p.r(C)p.r(U)p.d(A)p.d(C)}$$$RNA1{StrandType:ss}|RNA2{StrandType:as}$” was 77.8%.
